For data set [1], the target named is T1, IL-6 (Homo sapiens, UniProt P05231). Put plainly: ELISA of IL-6 binding to anti-IL6 antibody after exposure to HOCl or HOBr. To be noted: IL-6 exposed for 5 minutes at concentrations >2 ppm, halogen quenched before incubation. As to the method:
An ELISA assay (Fisher Scientific) was used to detect binding changes between IL6 and anti-IL6 antibody binding in the presence of HOCl or HOBr. Anti-human IL6 antibody was immobilized to a polystyrene 96 well plate as the capture antibody. IL-6 was exposed to various concentrations of HOCl or HOBr for 5 minutes. The active halogen was quenched before incubation with the coated plate wells. A second anti-human IL6 antibody was introduced to the coated wells and served as a detector to an enzyme-mediated chromophore indicator system.
The inhibition of IL-6 reactivity by exposure to HOCl is illustrated in FIG. 1.
On the technique in general: An ELISA detects its analyte on a solid surface through an enzyme-linked reagent.

The test system of data set [2] is mouse. To be noted: in vivo. An excerpt: (§1) Experimental exposures of rodents were done according to OECD method 423 for acute oral toxicity assessment, OECD method 434 for acute dermal toxicity and OECD method 433 for acute inhalation.
Data set [3] concerns the target T1, IL-6. Put plainly: IL-6 bioassay (Promega), luminescence in receptor-expressing human cells. Format: cell-based. The method, then: An IL-6 bioassay (Promega) was used to determine the effect of HOCl on IL-6 binding to human cells triggering a change in luminescence. IL-6 was incubated with various concentrations of HOCl and quenched, before addition to the receptor-expressing human cells.
Binding of the cytokine was measured by luminescence.

Data set [4] deals with mouse. To be noted: in vivo.
Text: as §1
This is another data set of the same source.

For another data set, the system named is human subjects. In words: Safety of human volunteers exposed to microaerosolized HOCl via inhalation. The format is in vivo. To be noted: dense microaerosols for 2-5 minutes, 400 episodes. As to the method: The safety of exposure of human subjects to microaerosolized pure stable HOCl via the respiratory route was evaluated.
Human volunteers were exposed to dense microaerosols of HOCl for periods of 2-5 minutes and submitted subjective reports of the outcomes of these experiences. Data on a total of 400 such episodes were collected under medical supervision.

SMILES strings stand for the structures. Like-named read-outs stand apart in the source and are kept apart here.

T1 sequence (P05231 30-212): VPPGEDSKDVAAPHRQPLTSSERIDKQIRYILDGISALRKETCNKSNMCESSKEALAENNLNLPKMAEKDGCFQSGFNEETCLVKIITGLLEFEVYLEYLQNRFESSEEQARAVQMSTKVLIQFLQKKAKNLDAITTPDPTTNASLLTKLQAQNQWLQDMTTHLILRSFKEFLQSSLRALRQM

Take `OBr` [HOBr, Hypobromous acid]: the “binding of IL-6 to the capture antibody” value at IL-6 [1] is “undetectable”.
As to `OCl` [HOCl, hypochlorous acid], the “binding of IL-6 to the capture antibody” value on IL-6 [1] is listed as “no detectable binding”. Besides, in the data set with mouse [2], the Result/Behavior result is given as “No change” and the Result/Histopathology entry was “No”. Further, the “capacity of the cytokine to initiate transmembrane signaling” value at IL-6 [3] (IL-6 exposed to HOCl) is “complete inhibition”. Also, the “luminescence of HOCl-treated IL-6” value on IL-6 [3] (all concentrations tested, IL-6 incubated with HOCl and quenched before addition to cells) is reported as “significantly reduced luminescence”. In the data set with mouse [4], the Result/Behavior entry is given as “No change” and the Result/Histopathology entry was “No”. In the data set with human subjects, the serious adverse effects result is on record as “No serious adverse effects”. For the same compound, the “minor complaints (nose irritation, slight impact on ease of deep breathing)” value with human subjects (disappeared upon cessation of exposure) is “approximately 3%”.
